Series [1] is described as follows: Circular dichroic spectrometry, percent helicity of peptides. Type of series: physicochemical. The conditions noted are these: for Percent Helicity, Peptide: peptide alone, 100 μM in PBS, pH 7.4, 25° C.; for Percent Helicity, Peptide/DMPC (1:20): peptide-DMPC complex 1:20 m/m. The protocol: Circular dichroic spectra were recorded on a signal averaging AVIV 62DS spectropolarimeter as described earlier (18). Briefly, circular dichroic spectra were obtained at 25° C. by signal averaging of four scans recorded every nm from 260 nm to 190 nm using a cell with a 0.01 cm path length Peptide concentrations in PBS, pH 7.4, used were 100 μM. Peptide-DMPC complexes (1:20 m/m) were prepared as described (18) and the change in peptide helicity upon lipid association measured. The helical content of the peptides was estimated from the mean residue ellipticity, [θ]MRE (deg.cm^2.dmol^−1) at 222 nm using the equations as detailed by Morrisett et al.(23).

Series [2] relates to MEF1 cells. Briefly: Internalization (uptake) and binding of 125I-LDL by mouse embryonic fibroblasts. Format: cell-based. The conditions noted are these: for Enhancement of LDL uptake (in words): mouse fibroblasts, results not shown. As to the method:
The binding, internalization and degradation of LDL/VLDL in fibroblasts were measured using the method of Goldstein et. al. (20). All cells were grown in DMEM medium in 6-well plates and used at 75-90% confluence was reached. The seeding density of cells used was between 1.5×10^5 and 3.0×10^5 cells/ml medium. Cells were incubated with DMEM medium containing LPDS 24 hours prior to use to upregulate LDL receptors. […] Non-specific binding was determined in the presence of 50 fold excess unlabelled LDL/VLDL with or without peptides. After washing with ice cold PBS (containing BSA 2 mg/ml), to remove excess free labeled lipoprotein, the cells were incubated with dextran sulfate (4 mg/ml, Pharmacia, Mr 500,000) or heparin (Sigma Chemical Co., 10 mg/ml) for 1 h to release spcifically bound ^125I-LDL/^125I-VLDL, and washed with cold PBS. The counts in the dextran sulfate wash reflect the amount of LDL/VLDL bound to cells.
The cells were dissolved in 0.1 N NaOH and a 0.5 ml aliquot of cell suspension was counted. These counts reflect the amount of LDL/VLDL internalized. Protein was estimated by the method of Lowry. Degradation of LDL/VLDL were studied using the protocol described above for 4° C., except that the cells were incubated at 37° C. for 5 hours. Degradation was determined by precipitating the unbound ^125I-LDL/^125I-VLDL from the medium with 50% TCA (0.5 ml of 50% TCA was added to 1 ml of medium) and incubating at 4° C. for 30 minutes (20). The precipitate was removed by centrifugation. The supernatant was treated with 10 μl of 40% potassium iodide and 40 μl of 30% hydrogen peroxide. The free ^125I liberated was extracted with 2 ml of chloroform. The upper aqueous layer (0.5 ml) was then counted. This represented the amount of ^125I-monoiodotyrosine produced by the degradation of apoB in LDL/VLDL.
(§1) Heparinase and heparitinase treatment of cells was carried out as follows. The cells were treated with heparinase and heparitinase (Sigma Chemical Co.) at a concentration of 3 U/ml of media for 2 hours at 37° C. These experiments were carried out using human and mouse fibroblasts as well as HepG2 cells. Mouse embryonic fibroblasts (MEF1), the LRP deficient mutant (PEA13) and the LRP/LDL double mutant (MEF4) were (obtained from ATCC ) used to identify the possible mechanism involved. In all the cell experiments, the average value of triplicates was used.
The effect of the peptide was studied in two ways: (a) the peptide was added to the cell media directly after adding LDL and (b) it was first incubated with LDL for 1 h at room temperature and the coincubated mixture was added to the cells after filtering through a 0.221μ filter. The peptide-LDL “complex” or modified LDL appears to enhance the uptake of ^125I-LDL much more than the peptide by itself (results not shown). […]

Series [3] deals with HepG2 cells. Briefly: Uptake of 125I-VLDL-peptide complex by HepG2 cells. Format: cell-based.
For series [4], the system named is MEF1 cells. Briefly: Effect of heparinase/heparitinase treatment of cells on peptide-mediated LDL internalization. Type of series: cell-based, mouse. The conditions noted are these: heparinase and heparitinase 0.5 units each/ml. The protocol:
MEF1 cells were pretreated with heparinase/heparitinase(3U/ml) for 2 hours at 37° C. and then incubated with ^1251I-LDL-peptide for 2 hours at 37° C. The black bars represent internalization without heparinase/heparitinase treatment while the speckled bars represent internalization after pretreatment with heparinase/heparitinase.
as §1
A possible high capacity, low affinity pathway has been previously identified for lipoprotein binding and uptake. Heparan sulfate proteoglycans (HSPG) bind and take up apo E-enriched lipoproteins (27). […] These apo E mimicking peptides could modify LDL and be taken up through heparan sulfate proteoglycans. Therefore, the cells were treated with heparinase and heparitinase (0.5 units each/ml).

The test system of series [5] is HepG2 cells. Briefly: Degradation of 125I-VLDL-peptide complex by HepG2 cells. Type of series: cell-based. The protocol: […] was used as a control. ^125I-VLDL was incubated with Ac-hE18A-NH2 (1:1 w/w) and reisolated by density centrifugation. The peptide bound to ^125I-VLDL floated to the top while the unbound peptide was at the bottom. The ^125I-VLDL-peptide complex was used to determine the effect of the peptide on the uptake and degradation of ^125I-VLDL. The first bar: ^125I-VLDL alone; the second bar: ^125VLDL-Ac-18A-NH2 (1:1 w/w); the third bar: VLDL-Ac-hE18A-NH2 (1:1 w/w). The data represent an average of triplicate values.
The binding, internalization and degradation of LDL/VLDL in fibroblasts were measured using the method of Goldstein et. al. (20). All cells were grown in DMEM medium in 6-well plates and used at 75-90% confluence was reached. The seeding density of cells used was between 1.5×10^5 and 3.0×10^5 cells/ml medium. Cells were incubated with DMEM medium containing LPDS 24 hours prior to use to upregulate LDL receptors. […] Non-specific binding was determined in the presence of 50 fold excess unlabelled LDL/VLDL with or without peptides. […]
The cells were dissolved in 0.1 N NaOH and a 0.5 ml aliquot of cell suspension was counted. […] Degradation was determined by precipitating the unbound ^125I-LDL/^125I-VLDL from the medium with 50% TCA (0.5 ml of 50% TCA was added to 1 ml of medium) and incubating at 4° C. for 30 minutes (20). […] The upper aqueous layer (0.5 ml) was then counted. […]

The test system of series [6] is apo E-gene knock out mice. Briefly: Intravenous administration of peptide, plasma cholesterol (CLiP). Type of series: in vivo, mouse. The protocol:
Female apo E knockout mice were injected through the tail vein with ^125I-Ac-hE18A-NH2 (50 μg in 100 μl PBS). Blood samples were taken by retro-orbital bleeding at baseline (0 h) and at 2 minutes and 6 hours following injection. Success of injection was determined by measuring radioactivity in the 2 minutes sample and calculating total plasma peptide by specific radioactivity of the peptide, assuming total plasma volume=4.2% of body weight.
50 μg of the ^125I-labeled peptide was injected into the tail vein into female apo E-gene knock out mice. Blood was drawn by retro-orbital bleeding immediately before injection (time 0), and at two minutes and 6 hours following the injection. Success of injections was determined by measuring the plasma radioactivity in the two minute sample; the total plasma peptide at two minutes was determined from the specific activity of the injected peptide and the radioactivity present in the plasma. Total plasma volume was assumed to be 4.2% of body weight. Plasma cholesterol profiles were determined on 5 μl of 0 h and 6 h samples by the CLiP method.
CLiP were determined using a modification of a previously described method for the semi-automated cholesterol profiling of lipoproteins by column chromatography (31). The apparatus consisted of two biocompatible HPLC pumps, an injector Pharmacia), a post-column reactor, a 30×1 cm Superose 6 column, and a spectrophotometric detector reading at 500 nm. Plasma samples were injected onto the Superose 6 column. Immediately after the column, cholesterol reagent (Cholesterol 1000, Pharmacia) was mixed with the column eluent through a low-dead-volume mixing tee, and the mixture entered a heating block (set at […]). Outflow from the heating block entered the spectrophotometric detector, and the cholesterol profile was collected through an A/D board and the digitized profile stored in a computer.
To determine the effect of peptide Ac-hE18A-NH2 in clearing the plasma cholesterol, 14 μg to 33 μg of the peptide were administered into six apo E(-/-) animals. In every case, the plasma cholesterol levels decreased. […]

The mark [7] stands for this setting: apo E(-/-) mice, intravenous, 6 hours.

With “LRKMRKRLMR-18A (DOMAIN 133..142 mouse apolipoprotein E receptor binding domain; listed as Mus sp.) [mE-18A]”, in series [1], the “Percent Helicity, Peptide” value is given as 36.3% and the “Percent Helicity, Peptide/DMPC (1:20)” value amounted to 44.0%. Also, in series [1] (listed as mE18A), the “Percent Helicity, Peptide” value is reported as 36%.
Consider “LRKLRKRLLR-18A (LRKLRKRLLRDWLKAFYDKVAEKLKEAF) [hE-18A, 141-150 region of human apo E linked to class A amphipathic helical peptide 18A]”, for which the results for the “Percent Helicity, Peptide” value in series [1] and in series [1] (listed as hE18A) were 36.0% and 36%, respectively. For the same substance, the “Percent Helicity, Peptide/DMPC (1:20)” value in series [1] was determined as 46.0%.
Take LRKLRKRLLR [reference compound]: in the series on MEF1 cells [2], the “Enhancement of LDL uptake (in words)” value was “did not enhance LDL uptake”.
For “LRRLRRRLLR-18A (an analog of human apolipoprotein E receptor binding domain) [hE-(R)18A, analog of hE-18A with Lys replaced by Arg]”, in series [1], the “Percent Helicity, Peptide” value came out at 51.2% and the “Percent Helicity, Peptide/DMPC (1:20)” value is reported as 70.8%. In addition, the “Percent Helicity, Peptide” value in series [1] (listed as hE(R)18A) is given as around 50%.
Regarding “Ac-18A-NH2: control peptide, end protected class A amphipathic helical peptide 18A [reference compound]”, the “Enhancement of LDL uptake (in words)” value in the series with MEF1 cells [2] is “did not enhance LDL uptake”. Further, the “Uptake of VLDL by HepG2 cells (in words)” value in the series with HepG2 cells [3] (VLDL-peptide 1:1 w/w) is on record as “does not increase uptake of VLDL”.
For the substance “Ac-hE18A-NH2: end protected analog of hE18A (acetyl and amino groups) (Ac-LRKLRKRLLRDWLKAFYDKVAEKLKEAF-NH2)”, in series [1], the “Percent Helicity, Peptide” value is 69.3% and the “Percent Helicity, Peptide/DMPC (1:20)” value is listed as 74.3%. In the series on MEF1 cells [2] (10 μg peptide, LDL 10 μg, versus corresponding unprotected peptide), the “Effectiveness in LDL internalization of protected peptide relative to free peptide” value is on record as 5 times. In the series on MEF1 cells [2] (MEF1 cells with induced LDL receptors, 125I-LDL 10 μg + peptide 10 μg, 2 hours at 37° C.), the “Enhancement of LDL internalization” value is “five”. Moreover, the “Reduction of uptake of peptide treated LDL by heparinase/heparitinase” value with MEF1 cells [4] is recorded as around 50%. Further, in the series on HepG2 cells [3] (peptide-associated VLDL), the “Enhancement of uptake of VLDL compared to VLDL alone” value was “six”. Moreover, the “Enhancement of degradation of VLDL by HepG2 cells” value in the series on HepG2 cells [5] (VLDL-peptide 1:1 w/w, versus control) is recorded as “three”. In the series on HepG2 cells [5] (peptide-associated VLDL), the “Enhancement of degradation of VLDL compared to VLDL alone” value is “three”. The “Reduction of total cholesterol” value in series [6] (FIG. 10B, plasma cholesterol profile at 6 hours vs baseline, single animal) is listed as above 50%. In addition, in series [6] (setting [7]), the HDL cholesterol result was “unchanged”; the “VLDL and LDL cholesterol levels” value is “lowered”.

Source of the values: US6506880B2, “Synthetic peptides that enhance atherogenic lipoprotein uptake and lower plasma cholesterol” (The UAB Research Foundation, priority 1998, dated 2003).
